ChEMBL document CHEMBL1151133, “Plant metabolites. Structure and in vitro antiviral activity of quinovic acid glycosides from Uncaria tomentosa and Guettarda platypoda” (J Nat Prod, 1989)
≈ marks a conversion by molar mass, not a printed value.

Key:
[1] = system: Vesicular stomatitis Indiana virus; assay: Antiviral activity against Vesicular stomatitis Indiana virus infected in golden hamster CER cells assessed as reduction in virus plaque formation after 36 to 48 hrs; assay type: functional
[2] = Cytotoxicity against golden hamster CER cells after 2 days by neutral red uptake assay; assay type: cell-based, Mesocricetus auratus; conditions: read-out: TC50
[3] = system: rhinovirus A1B; assay: Antiviral activity against HRV1B infected in human HeLa cells assessed as reduction in virus-induced cytopathic effect at 30 ug/ml; assay type: functional, Human rhinovirus 1B; design: scale not given: the % may be the effect or the level left
[4] = Cytotoxicity against human HeLa cells assessed as maximum non-toxic drug level after 2 days by neutral red uptake assay; assay type: cell-based; conditions: read-out: MNCC
[5] = system: rhinovirus A1B; assay: Antiviral activity against HRV1B infected in human HeLa cells assessed as reduction in virus-induced cytopathic effect at 20 ug/ml; assay type: functional, Human rhinovirus 1B; design: scale not given: the % may be the effect or the level left

Compound: C[C@H]1[C@H](C)CC[C@]2(C(=O)O)CC[C@]3(C(=O)O[C@@H]4O[C@H](CO)[C@@H](O)[C@H](O)[C@H]4O)C(=CC[C@@H]4[C@@]5(C)CC[C@H](O[C@@H]6O[C@H](CO)[C@@H](O)[C@H](O)[C@H]6O)C(C)(C)[C@@H]5CC[C@]43C)[C@H]12
- MIC50 [1]: 87 µM (≈ 70.6 µg/mL)
- CC50 at 48 h [2]: 150 µg/mL (≈ 185 µM)

Compound: C[C@H]1[C@H](C)CC[C@]2(C(=O)O)CC[C@]3(C(=O)O)C(=CC[C@@H]4[C@@]5(C)CC[C@H](O[C@@H]6O[C@H](C)[C@H](O)[C@H](O[C@@H]7O[C@H](CO)[C@@H](O)[C@H](O)[C@H]7O)[C@H]6O)C(C)(C)[C@@H]5CC[C@]43C)[C@H]12
- MIC50 [1]: 25 µM (≈ 19.9 µg/mL)
- CC50 at 48 h [2]: 100 µg/mL (≈ 126 µM)

Compound: C[C@H]1[C@H](C)CC[C@]2(C(=O)O[C@@H]3O[C@H](CO)[C@@H](O)[C@H](O)[C@H]3O)CC[C@]3(C(=O)O)C(=CC[C@@H]4[C@@]5(C)CC[C@H](O[C@@H]6O[C@H](C)[C@H](O)[C@H](O[C@@H]7O[C@H](CO)[C@@H](O)[C@H](O)[C@H]7O)[C@H]6O)C(C)(C)[C@@H]5CC[C@]43C)[C@H]12
- MIC50 [1]: 42 µM (≈ 40.2 µg/mL)
- CC50 at 48 h [2]: 80 µg/mL (≈ 83.6 µM)

Compound: C[C@H]1[C@H](C)CC[C@]2(C(=O)O[C@@H]3O[C@H](CO)[C@@H](O)[C@H](O)[C@H]3O)CC[C@]3(C(=O)O)C(=CC[C@@H]4[C@@]5(C)CC[C@H](O[C@@H]6O[C@H](C)[C@@H](O)[C@H](O)[C@H]6O)C(C)(C)[C@@H]5CC[C@]43C)[C@H]12
- MIC50 [1]: 28 µM (≈ 22.3 µg/mL)
- CC50 at 48 h [2]: 80 µg/mL (≈ 101 µM)

Compound: C[C@H]1[C@H](C)CC[C@]2(C(=O)O)CC[C@]3(C(=O)O[C@@H]4O[C@H](CO)[C@@H](O)[C@H](O)[C@H]4O)C(=CC[C@@H]4[C@@]5(C)CC[C@H](O[C@@H]6O[C@H](C)[C@H](O)[C@H](O[C@@H]7O[C@H](CO)[C@@H](O)[C@H](O)[C@H]7O)[C@H]6O)C(C)(C)[C@@H]5CC[C@]43C)[C@H]12
- MIC50 [1]: 63 µM (≈ 60.3 µg/mL)
- CC50 at 48 h [2]: 100 µg/mL (≈ 104 µM)

Compound: C[C@H]1[C@H](C)CC[C@]2(C(=O)O[C@@H]3O[C@H](CO)[C@@H](O)[C@H](O)[C@H]3O)CC[C@]3(C(=O)O)C(=CC[C@@H]4[C@@]5(C)CC[C@H](O[C@@H]6O[C@H](CO)[C@@H](O)[C@H](O)[C@H]6O)C(C)(C)[C@@H]5CC[C@]43C)[C@H]12
- Activity [3]: 50%
- MNTC at 48 h [4]: 100 µg/mL
- Activity [5]: 50%
- MIC50 [1]: 40 µM (≈ 32.4 µg/mL)
- CC50 at 48 h [2]: 150 µg/mL (≈ 185 µM)

Compound: C[C@H]1[C@H](C)CC[C@]2(C(=O)O[C@@H]3O[C@H](CO)[C@@H](O)[C@H](O)[C@H]3O)CC[C@]3(C(=O)O)C(=CC[C@@H]4[C@@]5(C)CC[C@H](O[C@@H]6O[C@H](C)[C@H](O)[C@H](O)[C@H]6O)C(C)(C)[C@@H]5CC[C@]43C)[C@H]12
- MIC50 [1]: 40 µM (≈ 31.8 µg/mL)
- CC50 at 48 h [2]: 80 µg/mL (≈ 101 µM)

Compound: C[C@H]1[C@H](C)CC[C@]2(C(=O)O)CC[C@]3(C(=O)O)C(=CC[C@@H]4[C@@]5(C)CC[C@H](O[C@@H]6O[C@H](CO)[C@@H](O)[C@H](O)[C@H]6O)C(C)(C)[C@@H]5CC[C@]43C)[C@H]12
- MIC50 [1]: 51 µM (≈ 33.1 µg/mL)
- CC50 at 48 h [2]: 150 µg/mL (≈ 231 µM)
